Experimental data as given in PMC6264295, “Studies on Log Po/w of Quinoxaline di-N-Oxides: A Comparison of RP-HPLC Experimental and Predictive Approaches” (Molecules, 2011).

Legend:
[1] = reference compounds; reference values; ref OECD Guidelines [39]; cited from earlier work
[2] = RP-HPLC determination of capacity factors and log Po/w (Supelcosil LC-ABZ, MOPS buffer pH 7.4/methanol); conditions: for log k’0: capacity factor extrapolated to 0% methanol; for RP-HPLC log Po/w: from log k’0 by Equation (1); for Capacity factors log k’40: 40% methanol; for Capacity factors log k’40 / Capacity factors log k’50 / Capacity factors log k’60 / Capacity factors log k’70: MOPS buffer pH 7.4; for Capacity factors log k’50: 50% methanol; for Capacity factors log k’60: 60% methanol; for Capacity factors log k’70: 70% methanol; for Capacity factors log k’0: extrapolated to 0% methanol; for chromatographic logP: pH 7.4, RP-HPLC log Po/w
Description: The RP-HPLC methods of Minick and Lombardo [53] were considered for estimating the n-octanol/water partition coefficients (log Po/w) of QdO. The inorganic salts and the reference compounds were, at least, of analytical grade (Sigma Aldrich and Fluka) and used without further purification. HPLC-grade methanol, n-octanol (Sigma-Aldrich) and bi-distilled water were used to prepare the mobile phase.
The other chromatographic conditions were: flow 1.0 mL/min^−1; isocratic elution, UV-visible detector set at the wavelength with maximum absorbance (260 and 210 nm). The test solutions were 0.3 mM in the desired compound. All the experiments were performed at 25 ± 2 °C at least twice.
The capacity factors were calculated according to Equation (2): […]
In order to judge if the experimentally measured log k’0 can be used to predict the log Po/w value, a calibration curve was created with the capacity factors of the reference compounds and a linear regression equation between the log Po/w and log k’0 was determined.
The robustness of the model and its predictivity were evaluated by the leave-one-out (LOO) cross-validation procedure. According to this procedure, the log Po/w value of each compound in the reference data set is predicted by the equations derived from all the other compounds except the predicted one. At the end of this procedure two values are available for each reference compound, the reference shake-flask log Po/w value (yi) and the predicted one (ŷi). […] The regression coefficient (R^2LOO) is defined by Equation (5): [drawing 8] (5) where [drawing 9] is the mean of the reference shake-flask log Po/w value and n is the number of reference compounds. A high value of R^2LOO indicates a good predictive ability of the model. The root mean squared error in prediction (RMSELOO) is calculated with Equation (6): [drawing 10] (6)

[3] = parameters: method as in earlier work; conditions: reduction peak potential; cited from earlier work
[4] = reference compounds, leave-one-out cross-validation

LOO-predicted RP-HPLC log Po/w ([2]; pH 7.4) | Capacity factors log k’40 [2] | Capacity factors log k’50 [2] | Capacity factors log k’60 [2] | Capacity factors log k’70 [2] | Capacity factors log k’0 ([2]; pH 7.4) | chromatographic logP [2] | SMILES | log Po/w [1] | log k’0 ([2]; reference compounds, pH 7.4) | RP-HPLC log Po/w ([2]; reference compounds) | LOO-predicted RP-HPLC log Po/w [2, 4] | Epc,1 [3]
– | – | – | – | – | – | – | CCC(C)=O [Compound 1, 2-Butanone, reference compound] | 0.3 | −0.06 | 0.21 | 0.15 | –
– | – | – | – | – | – | – | Nc1ccccc1 [Compound 2, Aniline, reference compound] | – | 0.67 | 0.94 | 0.96 | –
1.19 | – | – | – | – | – | – | CC(=O)Nc1ccccc1 [Compound 3, Acetanilide, reference compound] | – | 0.88 | 1.15 | – | –
1.52 | – | – | – | – | – | – | CC(=O)c1ccccc1 [Compound 4, Acetophenone, reference compound] | – | 1.27 | 1.54 | – | –
– | – | – | – | – | – | – | c1ccccc1 [Compound 5, Benzene, reference compound] | – | 1.87 | 2.14 | – | –
– | – | – | – | – | – | – | Clc1ccccc1 [Compound 6, Chlorobenzene, reference compound] | – | 2.62 | 2.89 | 2.90 | –
– | – | – | – | – | – | – | Brc1ccccc1 [Compound 7, Bromobenzene, reference compound] | – | 2.84 | – | – | –
– | – | – | – | – | – | – | c1ccc2ccccc2c1 [Compound 8, Naphthalene, reference compound] | – | 3.15 | 3.42 | – | –
– | 0.28 | −0.05 | −0.34 | −0.64 | 1.49 | 1.76 | Cc1c(C(=O)NCc2ccccc2)[n+]([O-])c2ccccc2[n+]1[O-] [Compound 10] | – | – | – | – | –
– | 0.35 | 0.07 | −0.24 | −0.56 | 1.58 | 1.85 | Cc1ccc2c(c1)[n+]([O-])c(C(=O)NCc1ccccc1)c(C)[n+]2[O-] [Compound 11] | – | – | – | – | −1.658
– | 0.65 | 0.30 | −0.05 | −0.36 | 1.98 | 2.25 | Cc1c(C(=O)NCc2ccccc2)[n+]([O-])c2cc(Cl)ccc2[n+]1[O-] [Compound 12] | – | – | – | – | −1.482
– | 0.98 | 0.66 | 0.27 | −0.11 | 2.46 | 2.72 | Cc1c(C(=O)NCc2ccccc2)[n+]([O-])c2cc(Cl)c(Cl)cc2[n+]1[O-] [Compound 13] | – | – | – | – | −1.211
– | 0.36 | 0.05 | −0.26 | −0.58 | 1.61 | 1.88 | Cc1c(C(=O)NCCc2ccccc2)[n+]([O-])c2ccccc2[n+]1[O-] [Compound 14] | – | – | – | – | −1.625
– | 0.47 | 0.21 | −0.13 | −0.45 | 1.73 | 2 | Cc1ccc2c(c1)[n+]([O-])c(C(=O)NCCc1ccccc1)c(C)[n+]2[O-] [Compound 15] | – | – | – | – | −1.649
– | 0.69 | 0.36 | 0.00 | −0.37 | 2.11 | 2.38 | Cc1c(C(=O)NCCc2ccccc2)[n+]([O-])c2cc(Cl)ccc2[n+]1[O-] [Compound 16] | – | – | – | – | −1.525
– | 1.07 | 0.74 | 0.34 | −0.06 | 2.60 | 2.87 | Cc1c(C(=O)NCCc2ccccc2)[n+]([O-])c2cc(Cl)c(Cl)cc2[n+]1[O-] [Compound 17] | – | – | – | – | −1.387
– | 0.85 | 0.48 | 0.11 | −0.24 | 2.30 | 2.57 | Cc1c(C(=O)NCc2ccc(Br)cc2)[n+]([O-])c2ccccc2[n+]1[O-] [Compound 18] | – | – | – | – | −1.540
– | 0.94 | 0.60 | 0.21 | −0.16 | 2.43 | 2.69 | Cc1ccc2c(c1)[n+]([O-])c(C(=O)NCc1ccc(Br)cc1)c(C)[n+]2[O-] [Compound 19] | – | – | – | – | −1.580
– | 1.22 | 0.84 | 0.42 | 0.02 | 2.83 | 3.09 | Cc1c(C(=O)NCc2ccc(Br)cc2)[n+]([O-])c2cc(Cl)ccc2[n+]1[O-] [Compound 20] | – | – | – | – | −1.445
– | 1.60 | 1.15 | 0.65 | 0.19 | 3.51 | 3.78 | Cc1c(C(=O)NCc2ccc(Br)cc2)[n+]([O-])c2cc(Cl)c(Cl)cc2[n+]1[O-] [Compound 21] | – | – | – | – | −1.363
– | 0.62 | 0.25 | −0.10 | −0.44 | 2.02 | 2.29 | Cc1ccc(CNC(=O)c2c(C)[n+]([O-])c3ccccc3[n+]2[O-])cc1 [Compound 22] | – | – | – | – | −1.580
– | 0.66 | 0.34 | −0.01 | −0.36 | 2.02 | 2.29 | Cc1ccc(CNC(=O)c2c(C)[n+]([O-])c3ccc(C)cc3[n+]2[O-])cc1 [Compound 23] | – | – | – | – | −1.590
– | 0.93 | 0.54 | 0.15 | −0.25 | 2.51 | 2.77 | Cc1ccc(CNC(=O)c2c(C)[n+]([O-])c3ccc(Cl)cc3[n+]2[O-])cc1 [Compound 24] | – | – | – | – | −1.489
– | 1.33 | 0.93 | 0.54 | 0.14 | 2.91 | 3.18 | Cc1ccc(CNC(=O)c2c(C)[n+]([O-])c3cc(Cl)c(Cl)cc3[n+]2[O-])cc1 [Compound 25] | – | – | – | – | –
– | 1.06 | 0.62 | 0.14 | −0.33 | 2.92 | 3.18 | Cc1c(C(=O)NCC(c2ccccc2)c2ccccc2)[n+]([O-])c2ccccc2[n+]1[O-] [Compound 26] | – | – | – | – | −1.591
– | 1.21 | 0.80 | 0.33 | −0.12 | 3.02 | 3.28 | Cc1ccc2c(c1)[n+]([O-])c(C(=O)NCC(c1ccccc1)c1ccccc1)c(C)[n+]2[O-] [Compound 27] | – | – | – | – | −1.640
– | 1.38 | 0.91 | 0.38 | −0.13 | 3.42 | 3.69 | Cc1c(C(=O)NCC(c2ccccc2)c2ccccc2)[n+]([O-])c2cc(Cl)ccc2[n+]1[O-] [Compound 28] | – | – | – | – | −1.491
– | 1.78 | 1.31 | 0.76 | 0.25 | 3.86 | 4.12 | Cc1c(C(=O)NCC(c2ccccc2)c2ccccc2)[n+]([O-])c2cc(Cl)c(Cl)cc2[n+]1[O-] [Compound 29] | – | – | – | – | −1.410
